This note sets out measurements from patent US20090137625A1, “Novel Enantiomers and Their Use as Monoamine Neurotransmitter Re-Uptake Inhibitors” (priority 2005, published 2009).

Molecules are shown by their SMILES. Where a name gives a salt, the structure may show the parent alone. Read-outs that look alike come from different tables or passages of the source.

Data set [1] has as its target T1, 5-HT-uptake (reuptake of serotonine in synaptosomes) (Rattus norvegicus, UniProt P31652).
T1 construct: in synaptosomes as described in WO 97/16451; from tissue
Kind of data set: Inhibition of serotonine (5-HT) reuptake in synaptosomes. In kind it is biochemical.

Data set [2] concerns the target T2, NA-uptake (reuptake of noradrenaline in synaptosomes) (Rattus norvegicus, UniProt Q9WTR4).
T2 construct: in synaptosomes as described in WO 97/16451; from tissue
Briefly: Inhibition of noradrenaline (NA) reuptake in synaptosomes. The format is biochemical.

Data set [3] concerns the target T3, DA-uptake (reuptake of dopamine in synaptosomes) (Rattus norvegicus, UniProt P23977).
T3 construct: in synaptosomes as described in WO 97/16451; from tissue
Kind of data set: Inhibition of dopamine (DA) reuptake in synaptosomes. The format is biochemical.

Where [4] appears, read: synaptosomes, 3H-5-HT, read-out: 5-HT-uptake IC50.
Setting [5] is: synaptosomes, 3H-NA, read-out: NA-uptake IC50.
Setting [6] is: synaptosomes, 3H-DA, read-out: DA-uptake IC50.

T2 sequence (Q9WTR4 1-597): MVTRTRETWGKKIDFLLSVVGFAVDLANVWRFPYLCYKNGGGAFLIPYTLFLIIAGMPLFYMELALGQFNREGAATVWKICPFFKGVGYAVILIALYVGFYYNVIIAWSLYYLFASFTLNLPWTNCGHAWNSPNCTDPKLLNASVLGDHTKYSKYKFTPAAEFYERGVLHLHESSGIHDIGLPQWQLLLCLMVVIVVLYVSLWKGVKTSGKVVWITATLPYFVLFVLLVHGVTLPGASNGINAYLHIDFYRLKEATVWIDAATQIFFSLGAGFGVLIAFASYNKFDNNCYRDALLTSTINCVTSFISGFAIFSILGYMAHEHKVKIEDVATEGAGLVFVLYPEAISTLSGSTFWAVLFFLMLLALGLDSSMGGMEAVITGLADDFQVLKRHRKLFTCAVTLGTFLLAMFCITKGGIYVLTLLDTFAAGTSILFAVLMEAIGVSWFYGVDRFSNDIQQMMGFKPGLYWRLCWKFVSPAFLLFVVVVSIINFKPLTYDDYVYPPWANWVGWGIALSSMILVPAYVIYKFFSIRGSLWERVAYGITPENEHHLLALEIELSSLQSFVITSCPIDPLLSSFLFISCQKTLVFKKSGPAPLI
T1 sequence (P31652 whole entry): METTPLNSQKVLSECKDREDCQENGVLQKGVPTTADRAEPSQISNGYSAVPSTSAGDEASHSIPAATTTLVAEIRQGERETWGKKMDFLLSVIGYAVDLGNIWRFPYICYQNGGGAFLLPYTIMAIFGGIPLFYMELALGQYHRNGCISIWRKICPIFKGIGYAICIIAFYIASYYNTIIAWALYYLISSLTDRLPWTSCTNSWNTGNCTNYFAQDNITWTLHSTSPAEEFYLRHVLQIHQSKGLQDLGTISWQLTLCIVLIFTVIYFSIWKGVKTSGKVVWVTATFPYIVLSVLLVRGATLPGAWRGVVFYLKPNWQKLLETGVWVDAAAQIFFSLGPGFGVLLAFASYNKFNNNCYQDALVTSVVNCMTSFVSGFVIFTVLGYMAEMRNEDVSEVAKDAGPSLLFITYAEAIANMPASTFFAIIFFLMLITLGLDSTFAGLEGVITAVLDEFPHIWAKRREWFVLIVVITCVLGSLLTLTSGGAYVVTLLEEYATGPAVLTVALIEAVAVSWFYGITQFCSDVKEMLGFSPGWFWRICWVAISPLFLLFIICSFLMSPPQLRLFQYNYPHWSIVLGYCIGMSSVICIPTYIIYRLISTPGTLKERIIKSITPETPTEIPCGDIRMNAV
T3 sequence (P23977 whole entry): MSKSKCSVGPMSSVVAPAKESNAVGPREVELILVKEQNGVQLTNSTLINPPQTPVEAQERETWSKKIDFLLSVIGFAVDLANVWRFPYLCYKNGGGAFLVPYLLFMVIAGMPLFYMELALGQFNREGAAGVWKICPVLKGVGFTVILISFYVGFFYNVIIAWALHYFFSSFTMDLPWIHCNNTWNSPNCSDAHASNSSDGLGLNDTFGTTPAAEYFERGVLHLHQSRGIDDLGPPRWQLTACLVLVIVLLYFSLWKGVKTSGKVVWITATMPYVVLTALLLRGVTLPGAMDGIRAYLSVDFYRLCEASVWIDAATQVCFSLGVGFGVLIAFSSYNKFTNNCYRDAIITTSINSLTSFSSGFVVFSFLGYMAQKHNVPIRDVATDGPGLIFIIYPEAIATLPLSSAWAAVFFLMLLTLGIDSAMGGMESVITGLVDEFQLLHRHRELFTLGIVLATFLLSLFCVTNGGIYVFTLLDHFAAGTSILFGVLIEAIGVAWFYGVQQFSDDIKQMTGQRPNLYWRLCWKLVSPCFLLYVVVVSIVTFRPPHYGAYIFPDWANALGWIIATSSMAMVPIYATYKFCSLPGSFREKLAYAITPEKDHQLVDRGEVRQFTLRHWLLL

Broadly, the melting point is the temperature, or range, at which the solid turns liquid. `CN1C2C=C(c3ccc4ccccc4c3)CC1CC2` (single isomer, unassigned; (-)) (as salt: hydrochloric acid salt) [1st compound of method E, (−)-8-Methyl-3-(naphthalen-2-yl)-8-aza-bicyclo[3.2.1]oct-2-ene] came in with a melting point of 265 °C.
The IC50 is the midpoint of a concentration-inhibition curve. As for `CN1C2C=C(c3ccc4ccccc4c3)CC1CC2` (single isomer, unassigned; (-)) [1st compound of method E, (−)-8-Methyl-3-(naphthalen-2-yl)-8-aza-bicyclo[3.2.1]oct-2-ene], the half-inhibitory concentration (IC50) in data set [1] (setting [4]) stood at 0.23 nM; in data set [2] (setting [5]), 18 nM; in data set [3] (setting [6]), 34 nM.
`C1=C(c2ccc3ccccc3c2)CC2CCC1N2` (single isomer, unassigned; (+)) [1st compound of method D, (+)-3-Naphthalen-2-yl-8-aza-bicyclo[3.2.1]oct-2-ene]: the IC50 in data set [1] came out at 0.34 nM; in data set [2], 13 nM; in data set [3], 58 nM.
Take `Clc1ccc(C2=CC3CCC(C2)N3)cc1` (single isomer, unassigned; (+)) [1st compound of method A, (+)-3-(4-Chlorophenyl)-8-H-8-aza-bicyclo[3.2.1]oct-2-ene]: the concentration for half-maximal inhibition (IC50) turned out to be 10 nM in data set [1] (setting [4]), 28 nM in data set [2] (setting [5]) and 260 nM in data set [3] (setting [6]).
On to `C1=C(c2ccc3ccccc3c2)CC2CCC1N2` (single isomer, unassigned; (+)) (as salt: tartaric acid salt) [1st compound of method D, (+)-3-Naphthalen-2-yl-8-aza-bicyclo[3.2.1]oct-2-ene], for which the melting point lay in the range of 183 to 189 °C.
